In ChEMBL document CHEMBL5291721, “A preclinical secondary pharmacology resource illuminates target-adverse drug reaction associations of marketed drugs” (Nat Commun, 2023):

Tests used:
[1] = target: T1, Gamma-aminobutyric acid receptor subunit alpha-1/alpha-2/beta-2/gamma-2 (Homo sapiens, UniProt P14867+P18507+P47869+P47870); type: functional, cell-based
[2] = target: T1, Gamma-aminobutyric acid receptor subunit alpha-1/alpha-2/beta-2/gamma-2; type: functional, cell-based; remark: listed apart in the source
[3] = target: Muscarinic acetylcholine receptor M3 (Homo sapiens, UniProt P20309)
Sequence of Muscarinic acetylcholine receptor M3 (P20309 whole entry): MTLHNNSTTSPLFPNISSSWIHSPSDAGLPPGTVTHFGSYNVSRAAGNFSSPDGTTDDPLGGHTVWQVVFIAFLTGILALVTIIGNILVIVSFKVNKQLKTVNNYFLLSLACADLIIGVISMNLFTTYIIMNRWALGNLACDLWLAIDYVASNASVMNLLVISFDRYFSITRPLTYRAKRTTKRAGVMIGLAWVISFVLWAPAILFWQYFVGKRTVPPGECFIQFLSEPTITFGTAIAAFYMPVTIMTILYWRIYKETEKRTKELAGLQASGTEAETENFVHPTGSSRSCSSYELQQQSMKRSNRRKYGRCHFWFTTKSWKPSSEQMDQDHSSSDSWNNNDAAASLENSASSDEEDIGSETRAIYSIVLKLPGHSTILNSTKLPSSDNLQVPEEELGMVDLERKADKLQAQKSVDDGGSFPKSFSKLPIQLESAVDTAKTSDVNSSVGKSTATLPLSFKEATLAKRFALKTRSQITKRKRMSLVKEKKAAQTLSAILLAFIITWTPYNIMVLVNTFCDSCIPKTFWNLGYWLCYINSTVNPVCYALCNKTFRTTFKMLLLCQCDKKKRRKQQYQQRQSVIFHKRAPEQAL

Histamine H1 receptor = Histamine H1 receptor (Homo sapiens, UniProt P35367)
Sequence of Histamine H1 receptor (P35367 whole entry): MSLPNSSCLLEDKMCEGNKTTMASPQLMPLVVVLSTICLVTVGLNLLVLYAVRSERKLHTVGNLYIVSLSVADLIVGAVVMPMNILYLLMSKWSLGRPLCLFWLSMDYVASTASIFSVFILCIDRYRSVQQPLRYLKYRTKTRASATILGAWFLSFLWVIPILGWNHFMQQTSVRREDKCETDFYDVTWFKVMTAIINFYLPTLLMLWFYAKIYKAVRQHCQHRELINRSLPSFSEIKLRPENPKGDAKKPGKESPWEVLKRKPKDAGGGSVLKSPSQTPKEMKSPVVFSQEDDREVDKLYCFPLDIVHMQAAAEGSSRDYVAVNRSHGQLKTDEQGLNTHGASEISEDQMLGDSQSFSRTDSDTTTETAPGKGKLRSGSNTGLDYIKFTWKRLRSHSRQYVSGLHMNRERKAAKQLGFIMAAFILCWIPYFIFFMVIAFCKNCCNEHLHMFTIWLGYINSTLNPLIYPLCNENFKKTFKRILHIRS

[4] = target: T2, Muscarinic acetylcholine receptor M1 (Homo sapiens, UniProt P11229); type: functional
T2 sequence (P11229 whole entry): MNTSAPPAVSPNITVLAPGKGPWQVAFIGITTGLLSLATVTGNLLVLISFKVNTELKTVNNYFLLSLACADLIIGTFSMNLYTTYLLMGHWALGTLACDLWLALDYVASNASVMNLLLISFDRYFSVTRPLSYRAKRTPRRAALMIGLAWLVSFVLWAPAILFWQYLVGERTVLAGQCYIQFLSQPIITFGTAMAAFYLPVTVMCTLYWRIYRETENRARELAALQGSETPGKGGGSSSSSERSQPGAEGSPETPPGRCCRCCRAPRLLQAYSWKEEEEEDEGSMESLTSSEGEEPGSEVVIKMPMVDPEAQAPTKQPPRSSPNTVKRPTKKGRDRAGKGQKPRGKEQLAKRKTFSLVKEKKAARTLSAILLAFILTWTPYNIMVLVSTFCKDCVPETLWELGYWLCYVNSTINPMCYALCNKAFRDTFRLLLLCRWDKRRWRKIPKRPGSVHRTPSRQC

[5] = target: Glutamate receptor ionotropic, NMDA 1 (Rattus norvegicus, UniProt P35439)
[6] = target: 3',5'-cyclic-AMP phosphodiesterase 4A (Homo sapiens, UniProt P27815); type: functional
Sequence of 3',5'-cyclic-AMP phosphodiesterase 4A (P27815 whole entry): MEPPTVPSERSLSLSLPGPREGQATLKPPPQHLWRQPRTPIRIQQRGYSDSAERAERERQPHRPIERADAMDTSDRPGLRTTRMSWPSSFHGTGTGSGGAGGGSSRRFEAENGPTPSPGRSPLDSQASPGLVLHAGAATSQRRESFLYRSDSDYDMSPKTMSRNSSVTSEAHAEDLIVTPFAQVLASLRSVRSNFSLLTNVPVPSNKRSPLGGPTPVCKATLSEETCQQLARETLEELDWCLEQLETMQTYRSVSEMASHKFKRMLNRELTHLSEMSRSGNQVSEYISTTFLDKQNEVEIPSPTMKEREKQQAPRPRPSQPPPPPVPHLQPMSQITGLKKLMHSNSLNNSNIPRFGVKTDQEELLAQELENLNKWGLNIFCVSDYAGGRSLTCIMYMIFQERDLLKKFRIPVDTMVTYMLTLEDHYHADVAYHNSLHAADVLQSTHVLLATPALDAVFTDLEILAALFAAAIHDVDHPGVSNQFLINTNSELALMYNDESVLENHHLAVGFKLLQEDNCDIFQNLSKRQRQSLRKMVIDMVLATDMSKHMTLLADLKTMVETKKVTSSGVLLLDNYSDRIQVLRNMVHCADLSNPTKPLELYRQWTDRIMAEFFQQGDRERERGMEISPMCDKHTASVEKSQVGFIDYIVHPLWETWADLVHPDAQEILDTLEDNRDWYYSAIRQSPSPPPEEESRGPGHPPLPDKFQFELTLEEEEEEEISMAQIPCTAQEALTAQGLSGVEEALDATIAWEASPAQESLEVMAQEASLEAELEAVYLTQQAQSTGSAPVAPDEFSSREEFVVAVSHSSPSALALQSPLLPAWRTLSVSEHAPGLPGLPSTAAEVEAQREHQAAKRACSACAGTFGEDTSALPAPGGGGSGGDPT

Mu-type opioid receptor = Mu-type opioid receptor (Homo sapiens, UniProt P35372)
Sequence of Mu-type opioid receptor (P35372 whole entry): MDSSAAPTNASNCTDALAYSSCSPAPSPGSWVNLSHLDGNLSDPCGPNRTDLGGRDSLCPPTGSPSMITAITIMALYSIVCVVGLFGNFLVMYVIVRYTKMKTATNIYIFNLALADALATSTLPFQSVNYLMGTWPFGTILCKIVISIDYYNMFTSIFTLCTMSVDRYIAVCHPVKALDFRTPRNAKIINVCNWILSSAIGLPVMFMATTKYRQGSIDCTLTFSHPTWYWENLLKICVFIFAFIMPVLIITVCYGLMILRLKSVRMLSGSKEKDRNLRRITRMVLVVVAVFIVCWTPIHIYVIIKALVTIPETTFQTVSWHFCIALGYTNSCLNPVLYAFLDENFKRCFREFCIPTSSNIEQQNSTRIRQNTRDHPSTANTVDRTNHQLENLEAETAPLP

[7] = target: 5-hydroxytryptamine receptor 2B (Homo sapiens, UniProt P41595); type: functional, cell-based
Sequence of 5-hydroxytryptamine receptor 2B (P41595 whole entry): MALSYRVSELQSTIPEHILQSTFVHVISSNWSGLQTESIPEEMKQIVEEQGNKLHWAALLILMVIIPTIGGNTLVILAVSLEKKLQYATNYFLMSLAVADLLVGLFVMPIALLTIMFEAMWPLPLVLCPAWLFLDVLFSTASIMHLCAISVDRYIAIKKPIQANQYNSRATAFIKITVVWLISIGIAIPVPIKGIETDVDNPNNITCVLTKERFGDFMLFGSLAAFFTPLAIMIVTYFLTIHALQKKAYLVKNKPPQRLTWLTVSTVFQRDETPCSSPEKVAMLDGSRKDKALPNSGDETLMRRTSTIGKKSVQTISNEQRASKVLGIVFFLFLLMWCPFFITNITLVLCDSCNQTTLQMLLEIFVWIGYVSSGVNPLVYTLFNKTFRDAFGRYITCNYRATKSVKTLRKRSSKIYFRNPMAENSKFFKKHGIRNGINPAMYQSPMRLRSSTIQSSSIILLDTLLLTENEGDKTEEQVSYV

[8] = target: Gamma-aminobutyric acid receptor subunit alpha-1 (Rattus norvegicus, UniProt P62813)
Sequence of Gamma-aminobutyric acid receptor subunit alpha-1 (P62813 whole entry): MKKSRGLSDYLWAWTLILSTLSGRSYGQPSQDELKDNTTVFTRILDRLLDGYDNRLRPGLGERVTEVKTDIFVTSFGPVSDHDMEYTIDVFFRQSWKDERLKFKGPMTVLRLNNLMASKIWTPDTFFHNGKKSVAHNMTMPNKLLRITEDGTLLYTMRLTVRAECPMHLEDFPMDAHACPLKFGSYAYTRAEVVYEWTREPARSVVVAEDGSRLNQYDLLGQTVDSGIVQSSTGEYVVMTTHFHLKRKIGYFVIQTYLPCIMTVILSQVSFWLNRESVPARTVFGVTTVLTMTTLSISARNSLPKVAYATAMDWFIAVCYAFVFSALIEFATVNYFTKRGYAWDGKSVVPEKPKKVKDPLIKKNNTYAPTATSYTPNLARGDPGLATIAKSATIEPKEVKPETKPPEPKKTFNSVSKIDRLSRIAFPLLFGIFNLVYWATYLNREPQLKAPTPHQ

[9] = target: cGMP-inhibited 3',5'-cyclic phosphodiesterase 3A (Homo sapiens, UniProt Q14432); type: functional
Sequence of cGMP-inhibited 3',5'-cyclic phosphodiesterase 3A (Q14432 whole entry): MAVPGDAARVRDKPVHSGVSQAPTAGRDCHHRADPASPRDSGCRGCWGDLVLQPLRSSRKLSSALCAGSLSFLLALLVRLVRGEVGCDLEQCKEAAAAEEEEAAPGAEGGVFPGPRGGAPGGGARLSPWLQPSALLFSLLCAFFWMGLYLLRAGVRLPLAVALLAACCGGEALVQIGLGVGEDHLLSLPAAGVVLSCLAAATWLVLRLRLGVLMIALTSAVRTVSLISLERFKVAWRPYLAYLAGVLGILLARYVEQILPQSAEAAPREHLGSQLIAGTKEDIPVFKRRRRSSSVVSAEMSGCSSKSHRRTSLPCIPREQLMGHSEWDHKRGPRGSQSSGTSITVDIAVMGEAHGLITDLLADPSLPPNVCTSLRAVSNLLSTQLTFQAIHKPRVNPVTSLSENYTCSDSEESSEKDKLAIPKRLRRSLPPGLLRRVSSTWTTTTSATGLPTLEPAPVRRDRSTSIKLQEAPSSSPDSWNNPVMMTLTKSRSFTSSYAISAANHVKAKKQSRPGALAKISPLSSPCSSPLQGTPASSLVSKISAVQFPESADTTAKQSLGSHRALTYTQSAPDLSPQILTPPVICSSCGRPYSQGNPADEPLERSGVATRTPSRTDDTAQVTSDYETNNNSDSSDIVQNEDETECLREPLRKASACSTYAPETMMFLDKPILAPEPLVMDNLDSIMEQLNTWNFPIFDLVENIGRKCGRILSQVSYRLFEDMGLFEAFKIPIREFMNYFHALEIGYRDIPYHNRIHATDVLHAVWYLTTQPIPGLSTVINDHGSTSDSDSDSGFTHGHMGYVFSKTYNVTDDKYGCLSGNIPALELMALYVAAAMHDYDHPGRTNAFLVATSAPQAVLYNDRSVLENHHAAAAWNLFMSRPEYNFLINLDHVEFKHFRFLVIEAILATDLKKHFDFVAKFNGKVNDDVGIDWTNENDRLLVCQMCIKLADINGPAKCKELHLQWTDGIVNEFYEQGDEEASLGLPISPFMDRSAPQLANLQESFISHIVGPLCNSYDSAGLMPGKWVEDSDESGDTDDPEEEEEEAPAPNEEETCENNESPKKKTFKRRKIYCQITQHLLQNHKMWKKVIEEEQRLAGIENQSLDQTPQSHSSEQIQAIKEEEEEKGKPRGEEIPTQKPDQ

D(1A) dopamine receptor = D(1A) dopamine receptor (Homo sapiens, UniProt P21728)
Sequence of D(1A) dopamine receptor (P21728 whole entry): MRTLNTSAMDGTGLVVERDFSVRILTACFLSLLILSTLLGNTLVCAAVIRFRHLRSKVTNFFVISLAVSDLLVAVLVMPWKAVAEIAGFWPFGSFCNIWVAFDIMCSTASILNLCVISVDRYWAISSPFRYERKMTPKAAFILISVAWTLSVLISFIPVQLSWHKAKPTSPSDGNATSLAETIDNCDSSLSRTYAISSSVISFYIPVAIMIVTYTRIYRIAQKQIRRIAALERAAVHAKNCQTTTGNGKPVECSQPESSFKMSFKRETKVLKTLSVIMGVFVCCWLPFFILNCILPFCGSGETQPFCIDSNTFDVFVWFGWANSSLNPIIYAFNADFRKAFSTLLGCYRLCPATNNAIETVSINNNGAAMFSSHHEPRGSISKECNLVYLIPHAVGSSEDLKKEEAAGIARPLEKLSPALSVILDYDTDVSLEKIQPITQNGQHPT

[10] = target: T2, Muscarinic acetylcholine receptor M1; type: functional, cell-based
[11] = target: T3, Alpha-1A adrenergic receptor (Homo sapiens, UniProt P35348); type: functional, cell-based
T3 sequence (P35348 whole entry): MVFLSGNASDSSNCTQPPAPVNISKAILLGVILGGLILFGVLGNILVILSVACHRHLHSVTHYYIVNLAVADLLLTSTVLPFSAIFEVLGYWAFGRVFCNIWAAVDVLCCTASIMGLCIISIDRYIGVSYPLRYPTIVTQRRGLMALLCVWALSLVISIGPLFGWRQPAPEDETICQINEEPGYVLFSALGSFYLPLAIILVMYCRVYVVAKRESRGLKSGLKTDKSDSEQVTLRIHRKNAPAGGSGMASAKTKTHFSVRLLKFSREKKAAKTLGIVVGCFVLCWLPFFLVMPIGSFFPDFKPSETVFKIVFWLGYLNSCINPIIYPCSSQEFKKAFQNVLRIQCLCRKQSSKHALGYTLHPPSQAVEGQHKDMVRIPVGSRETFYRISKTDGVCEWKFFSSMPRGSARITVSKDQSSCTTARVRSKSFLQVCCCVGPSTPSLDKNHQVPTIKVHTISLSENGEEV

[12] = target: Voltage-dependent L-type calcium channel subunit alpha-1C (Rattus norvegicus, UniProt P22002); type: functional
[13] = target: Beta-2 adrenergic receptor (Homo sapiens, UniProt P07550)
[14] = target: T3, Alpha-1A adrenergic receptor
Melanocortin receptor 4 = Melanocortin receptor 4 (Homo sapiens, UniProt P32245)
Estrogen receptor = target: T4, Estrogen receptor (Homo sapiens, UniProt P03372); type: functional
T4 sequence (P03372 whole entry): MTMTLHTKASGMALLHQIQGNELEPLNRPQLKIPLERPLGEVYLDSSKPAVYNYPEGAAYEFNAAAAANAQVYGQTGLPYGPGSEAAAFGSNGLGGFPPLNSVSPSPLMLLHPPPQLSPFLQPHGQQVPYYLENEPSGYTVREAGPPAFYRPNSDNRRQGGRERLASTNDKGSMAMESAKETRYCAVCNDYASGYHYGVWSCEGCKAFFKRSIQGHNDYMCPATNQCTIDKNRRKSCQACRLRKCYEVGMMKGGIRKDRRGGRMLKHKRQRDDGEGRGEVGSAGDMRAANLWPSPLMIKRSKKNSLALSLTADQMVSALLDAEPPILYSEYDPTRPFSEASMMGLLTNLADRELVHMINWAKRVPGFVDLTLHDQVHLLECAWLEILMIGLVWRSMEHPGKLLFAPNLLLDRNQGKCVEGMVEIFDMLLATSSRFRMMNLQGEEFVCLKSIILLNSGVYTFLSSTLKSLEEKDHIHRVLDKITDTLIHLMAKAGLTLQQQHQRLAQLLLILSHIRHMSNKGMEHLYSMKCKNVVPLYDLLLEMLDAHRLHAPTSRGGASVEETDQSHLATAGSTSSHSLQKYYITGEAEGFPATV
Further: assay procedure not described here.

SMILES | AC50 [1] [µM] | AC50 [2] [µM] | AC50 [3] [µM] | AC50 (Histamine H1 receptor) [µM] | AC50 [4] [µM] | AC50 [5] [µM] | AC50 [6] [µM] | AC50 (Mu-type opioid receptor) [µM] | AC50 [7] [µM] | AC50 [8] [µM] | AC50 [9] [µM] | AC50 (D(1A) dopamine receptor) [µM] | AC50 [10] [µM] | AC50 [11] [µM] | AC50 [12] [µM] | AC50 [13] [µM] | AC50 [14] [µM] | AC50 (Melanocortin receptor 4) [µM] | AC50 (Estrogen receptor) [µM]
CCC[C@@]1(CCc2ccccc2)CC(O)=C([C@H](CC)c2cccc(NS(=O)(=O)c3ccc(C(F)(F)F)cn3)c2)C(=O)O1 | 22 | > 30 | > 30 | > 30 | > 30 | – | – | – | – | – | – | – | – | – | – | – | – | – | –
CN(C)CCc1c[nH]c2ccc(CS(=O)(=O)N3CCCC3)cc12 [ALMOTRIPTAN] | > 30 | > 30 | > 30 | > 30 | > 30 | > 30 | – | – | – | – | – | – | – | – | – | – | – | – | –
CN(C)CCOC(c1ccc(Cl)cc1)c1ccccn1 (stereo not given) [CARBINOXAMINE] | > 30 | > 30 | > 30 | 0.11 | > 30 | > 30 | – | – | – | – | – | – | – | – | – | – | – | – | –
O=C(Cc1cccs1)N[C@@H]1C(=O)N2C(C(=O)[O-])=C(C[n+]3ccccc3)CS[C@H]12 [CEPHALORIDINE] | > 30 | > 30 | > 30 | > 30 | > 30 | > 30 | > 3 | > 30 | > 30 | > 30 | > 30 | > 30 | – | – | – | – | – | – | –
CCCCCCCCCCCCCCCC(=O)OC[C@H](COP(=O)([O-])OCC[N+](C)(C)C)OC(=O)CCCCCCCCCCCCCCC [COLFOSCERIL PALMITATE] | – | – | – | – | – | – | > 30 | > 30 | > 30 | > 30 | > 30 | > 30 | > 30 | > 30 | – | – | – | – | –
C[C@@H](CN1CC(=O)NC(=O)C1)N1CC(=O)NC(=O)C1 [DEXRAZOXANE] | – | – | – | – | – | – | > 30 | > 30 | > 30 | > 30 | > 30 | > 30 | > 30 | > 30 | – | – | – | – | –
C[C@]12CC[C@@H]3c4ccc(OC(=O)N(CCCl)CCCl)cc4CC[C@H]3[C@@H]1CC[C@@H]2OP(=O)(O)O [ESTRAMUSTINE PHOSPHATE] | – | – | – | – | – | – | > 30 | > 30 | > 30 | > 30 | > 30 | 25.4 | > 30 | > 30 | – | – | – | – | –
NCC1(CC(=O)O)CCCCC1 [GABAPENTIN] | > 30 | > 30 | – | – | – | > 10 | > 30 | > 30 | > 30 | – | > 30 | > 30 | – | > 30 | > 10 | > 10 | > 10 | > 30 | –
N=C(N)NCC1COc2ccccc2O1 (stereo not given) [GUANOXAN] | – | – | – | – | – | – | > 30 | > 30 | > 30 | > 30 | > 30 | 23.4 | > 30 | > 30 | – | – | – | – | –
N[C@@H](Cc1cc(I)c(Oc2cc(I)c(O)c(I)c2)c(I)c1)C(=O)O [LEVOTHYROXINE] | > 30 | > 30 | > 30 | > 30 | > 30 | > 30 | – | – | – | – | – | – | – | – | – | – | – | – | –
CCCCCCO[C@@H](C)c1cccc(-c2csc(NC(=O)c3cc(Cl)c(/C=C(\C)C(=O)O)c(Cl)c3)n2)c1OC [LUSUTROMBOPAG] | – | – | – | – | – | – | 16.2 | > 30 | > 30 | > 30 | > 30 | 1.54 | 16.2 | > 30 | – | – | – | – | –
Cc1cc(C)cc(OCC2CNC(=O)O2)c1 (stereo not given) [METAXALONE] | – | – | – | – | – | – | > 30 | > 30 | > 30 | > 30 | > 30 | > 30 | > 30 | > 30 | – | – | – | – | –
CO[C@@]1(NC(=O)C(C(=O)O)c2ccc(O)cc2)C(=O)N2C(C(=O)O)=C(CSc3nnnn3C)CO[C@@H]21 (stereo not given in full) [MOXALACTAM] | – | – | – | – | – | – | > 30 | > 30 | > 30 | > 30 | > 30 | > 30 | > 30 | > 30 | – | – | – | – | –
CS(=O)(=O)Nc1ccc([N+](=O)[O-])cc1Oc1ccccc1 [NIMESULIDE] | > 30 | > 30 | – | – | – | > 30 | > 10 | > 30 | > 30 | – | > 30 | > 30 | – | > 30 | – | – | – | – | –
C#CCN(C)Cc1ccccc1 [PARGYLINE] | > 30 | > 30 | > 30 | > 30 | > 30 | > 30 | > 30 | > 30 | > 30 | > 30 | > 30 | > 30 | – | – | – | – | – | – | –
COc1cccc2c1C(=O)c1c(O)c3c(c(O)c1C2=O)C[C@@](O)(C(=O)CO)C[C@@H]3O[C@H]1C[C@H](N)[C@H](O[C@@H]2CCCCO2)[C@H](C)O1 [PIRARUBICIN] | – | – | – | – | – | – | > 30 | > 30 | > 30 | > 30 | > 30 | > 30 | > 10 | > 1 | – | – | – | – | –
CC(C)NC[C@H](O)COc1ccc(O)cc1 [PRENALTEROL] | – | – | – | – | – | – | > 30 | > 30 | > 30 | > 30 | > 30 | > 30 | > 30 | > 30 | – | – | – | – | –
CC(C)(CO)c1cc2cc(NC(=O)C3(c4ccc5c(c4)OC(F)(F)O5)CC3)c(F)cc2n1C[C@@H](O)CO [TEZACAFTOR] | – | > 30 | > 30 | > 30 | > 30 | – | – | – | – | – | – | – | – | – | – | – | – | – | > 30
CN1CCC(N(Cc2cccs2)c2ccccc2)CC1 [THENALIDINE] | – | – | – | – | – | – | > 30 | 7.42 | > 30 | > 30 | > 30 | 11.6 | 0.762 | > 30 | – | – | – | – | –
CN(C)CCN(Cc1ccccc1)c1ccccn1 [TRIPELENNAMINE] | – | – | > 30 | 0.08 | > 10 | > 10 | > 30 | > 30 | > 30 | > 30 | > 30 | 19.4 | > 30 | > 30 | > 10 | > 30 | 10.8 | > 10 | –
